Measurements taken from ChEMBL document CHEMBL1129276, “Synthesis of 2'-aminomethyl derivatives of N-(2-(phosphonomethoxy)ethyl) nucleotide analogues as potential antiviral agents” (1996).
Converted amounts (≈) assume the structure as drawn.

Legend:
Format in all cases: functional
[1] = system: MT4; experiment: Compound was tested in vitro for Minimum inhibitory concentration required to reduce CMV(AD-169) induced cytopathicity in Human MT-4 cells
[2] = system: MT4; experiment: Compound was tested in vitro for Minimum inhibitory concentration required to reduce CMV(Davis) induced cytopathicity in Human MT-4 cells
[3] = system: MT4; experiment: Compound was tested in vitro for Minimum inhibitory concentration required to reduce VZV TK+(OKA) induced cytopathicity in Human MT-4 cells
[4] = system: MT4; experiment: Compound was tested in vitro for Minimum inhibitory concentration required to reduce VZV TK+(YS) induced cytopathicity in Human MT-4 cells
[5] = system: MT4; experiment: Compound was tested in vitro for Minimum inhibitory concentration required to reduce VZV TK-(YS/R) induced cytopathicity in Human MT-4 cells
[6] = system: HEL; experiment: Compound was tested in vitro for Minimum inhibitory concentration required to reduce CMV(AD-169) induced cytopathicity in HEL cells; details: Homo sapiens
[7] = system: HEL; experiment: Compound was tested in vitro for Minimum inhibitory concentration required to reduce CMV(Davis) induced cytopathicity in HEL cells; details: Homo sapiens
[8] = system: HEL; experiment: Compound was tested in vitro for Minimum inhibitory concentration required to reduce VZV TK+(OKA) induced cytopathicity in HEL cells; details: Homo sapiens
[9] = system: HEL; experiment: Compound was tested in vitro for Minimum inhibitory concentration required to reduce VZV TK-(YS/R) induced cytopathicity in HEL cells; details: Homo sapiens
[10] = system: HEL; experiment: Compound was tested in vitro for Minimum inhibitory concentration required to reduce VZV TK+(YS) induced cytopathicity in HEL cells; details: Homo sapiens
[11] = system: HEL; experiment: Minimum inhibitory concentration required to reduce VZV TK-(07-1) induced cytopathicity in HEL cells; details: Homo sapiens
[12] = system: HEL; experiment: Compound was tested in vitro for Minimum inhibitory concentration required to reduce CMV (AD-169) induced cytopathicity in HEL cells; details: Homo sapiens
[13] = system: C3H/3T3; experiment: Compound was tested in vitro for Minimum inhibitory concentration required to reduce MSV induced cytopathicity in murine C3H/3T3 embryo fibroblasts; details: Mus musculus
[14] = system: E6SM; experiment: Compound was tested in vitro for minimum inhibitory concentration required to reduce HSV-1(KOS) induced cytopathicity in E6SM cells; details: Homo sapiens
[15] = system: MT4; experiment: Compound was tested in vitro for Minimum inhibitory concentration required to reduce HSV-1 TK-(B2006) induced cytopathicity in Human MT-4 cells
[16] = system: MT4; experiment: Compound was tested in vitro for Minimum inhibitory concentration required to reduce HSV-1(IIIb) induced cytopathicity in Human MT-4 cells
[17] = system: MT4; experiment: Compound was tested in vitro for Minimum inhibitory concentration required to reduce HSV-2(ROD) induced cytopathicity in Human MT-4 cells
[18] = system: MT4; experiment: Compound was tested in vitro for minimum inhibitory concentration required to reduce HSV-1(KOS) induced cytopathicity in Human MT-4 cells
[19] = system: MT4; experiment: Minimum inhibitory concentration required to reduce VZV TK-(07-1) induced cytopathicity in Human MT-4 cells
[20] = system: HEL; experiment: Compound was tested in vitro for Minimum inhibitory concentration required to reduce VZV TK-(07-1) induced cytopathicity in HEL cells; details: Homo sapiens

SMILES | MIC [1] | MIC [2] | MIC [3] | MIC [4] | MIC [5] | MIC [6] | MIC [7] | MIC [8] | MIC [9] | MIC [10] | MIC [11] | further results
NCC(Cn1cnc2c(N)ncnc21)OCP(=O)(O)O (stereo unspecified) | 15 µg/mL (≈ 49.6 µM) | 35 µg/mL (≈ 116 µM) | 11 µg/mL (≈ 36.4 µM) | 7 µg/mL (≈ 23.2 µM) | 7 µg/mL (≈ 23.2 µM) |  |  |  |  |  |  | 
CN(C)CC(Cn1cnc2c(N)ncnc21)OCP(=O)(O)O (stereo unspecified) |  |  |  |  |  | > 20000 µg/mL | > 20000 µg/mL | > 20000 µg/mL | > 20000 µg/mL | > 20000 µg/mL | > 20000 µg/mL | 
Nc1ncnc2c1ncn2CC(CNC(=O)c1ccccc1C(=O)O)OCP(=O)(O)O (stereo unspecified) |  |  |  |  |  | > 50000 µg/mL | > 50000 µg/mL | > 50000 µg/mL | > 50000 µg/mL | > 50000 µg/mL | > 50000 µg/mL | 
C[N+](C)(C)CC(Cn1cnc2c(N)nc(N)nc21)OCP(=O)(O)O (stereo unspecified) |  |  |  |  |  |  |  |  |  | > 50000 µg/mL |  | MIC [12]: > 50000 µg/mL
Nc1ncnc2c1ncn2CC(CN1CCOCC1)OCP(=O)(O)O (stereo unspecified) |  |  |  |  |  | > 50000 µg/mL | > 50000 µg/mL | > 50000 µg/mL | > 50000 µg/mL | > 50000 µg/mL | > 50000 µg/mL | MIC [13]: 25000 µg/mL (≈ 67100 µM); MIC [14]: 70000 µg/mL (≈ 188000 µM)
Nc1nc(N)c2ncn(CC(CNC(=O)c3ccccc3C(=O)O)OCP(=O)(O)O)c2n1 (stereo unspecified) |  |  |  |  |  | > 50000 µg/mL | > 50000 µg/mL | > 50000 µg/mL | > 50000 µg/mL | > 50000 µg/mL | > 50000 µg/mL | 
Nc1ncnc2c1ncn2C[C@@H](CO)OCP(=O)(O)O | 0.15 µg/mL (≈ 0.495 µM) | 0.2 µg/mL (≈ 0.66 µM) | 0.03 µg/mL (≈ 0.0989 µM) | 0.05 µg/mL (≈ 0.165 µM) | 0.01 µg/mL (≈ 0.033 µM) |  |  |  |  |  |  | MIC [15]: 0.1 µg/mL (≈ 0.33 µM); MIC [16]: > 20 µg/mL; MIC [17]: > 20 µg/mL; MIC [18]: 0.2 µg/mL (≈ 0.66 µM); MIC [19]: 0.04 µg/mL (≈ 0.132 µM)
C[N+](C)(C)CC(Cn1cnc2c(O)nc(N)nc21)OCP(=O)(O)O (stereo unspecified) |  |  |  |  |  | > 50000 µg/mL |  | > 50000 µg/mL |  | > 50000 µg/mL |  | 
C[N+](C)(C)CC(Cn1cnc2c(N)ncnc21)OCP(=O)(O)O (stereo unspecified) |  |  |  |  |  | > 50000 µg/mL | > 50000 µg/mL | > 50000 µg/mL |  | > 50000 µg/mL |  | MIC [20]: > 50000 µg/mL
Nc1ncnc2c1ncn2CCOCP(=O)(O)O [ADEFOVIR] | 28 µg/mL (≈ 102 µM) | 29 µg/mL (≈ 106 µM) | 25 µg/mL (≈ 91.5 µM) | 31 µg/mL (≈ 113 µM) | 14 µg/mL (≈ 51.2 µM) |  |  |  |  |  |  | MIC [15]: 20 µg/mL (≈ 73.2 µM); MIC [16]: 1.5 µg/mL (≈ 5.49 µM); MIC [17]: 1.5 µg/mL (≈ 5.49 µM); MIC [18]: 7 µg/mL (≈ 25.6 µM); MIC [19]: 14 µg/mL (≈ 51.2 µM)
